The values that follow come from patent US20220340983A1, “SYSTEMS AND ASSAYS FOR IDENTIFYING PU.1 INHIBITORS” (Massachustts Institute of Technology, priority 2019, published 2022).

Assay [1] deals with iPS and ES-microglia. Kind of assay: ATP levels (CellTiter-Glo luminescence per well) in microglia. In kind it is cell-based, human. As for the experimental part:
Top row: Effect of a 2-day treatment with DPBS (10 μL/mL), IFNγ (25 ng/mL), TNFα (25 ng/mL), TGFβ (25 ng/mL), IL1β (25 ng/mL), LPS (25 ng/mL), ATP (100 nM), CD200 (100 ng/mL), IFNα (25 ng/mL), IL12 (5 ng/mL), CX3CL1 (100 ng/mL), CCL5 (100 ng/mL), PMA (10 ng/mL), IFNβ (10 ng/mL), IL33 (10 ng/mL), and IL4 (100 ng/mL). n=52 for DPBS, n=9 for all other inflammatory molecules, except IL33 where n=3. Bottom row: effect after co-application with A11 (20 nM). Scale bar 10 μm. […] Student's unpaired, two sided t-test, ****P≤0.0001, ***P≤0.001, **P≤0.01, *P≤0.05. […] Top row: An increase in number of cells per well with ≥2 BODIPY-positive structures was observed after a 2-day treatment with IFNγ (25 ng/mL), TNFα (25 ng/mL) and IL33 (10 ng/mL) as compared to DPBS treatment. […] Student's unpaired, two-sided t-test, ***P≤0.001, **P≤0.01, *P≤0.05. […] A 2-day treatment with IFNγ (25 ng/mL) caused increase in ATP levels that was reversed by A11 (20 nM) treatment in iPS (left panel) and ES-microglia (right panel). Student's unpaired, twosided t-test, **P≤0.01. […]
FIGS. 17A-17H show results from comparing the effects of multiple inflammatory molecules in iPS-microglia. […] Quantification based on total Vybrant DiI-positive surface area divided by number of Hoechst positive cells per field of view. […]
On the technique in general: In ATP-based viability assays light output follows the ATP content of the culture.

For assay [2], the target named is T1, PU.1 (Mus musculus, UniProt P17433).
T1 construct: endogenous in cells; host or cells: BV2 PU.1-Luciferase (mouse microglial BV2 with a 5xLBB-luciferase reporter integrated at ROSA26)
Kind of assay: Luciferase assay (luminescence) in BV2 PU.1-Luciferase reporter cells. The assay is classed as cell-based. To be noted: luminescence reduction in BV2 PU.1-Luciferase cells, concentration-response, Hill's equation. On the technique in general: In a reporter assay the amount or activity of a reporter protein is the signal.

Assay [3] deals with multiple cell lines. Nature of the assay: Time course of A11 efficacy after application. In kind it is cell-based. To be noted: A11 obtained from several vendors. From the text:
The gene modulation was reproduced in unmodified BV2 cells and primary mouse microglia. FIG. 14B: Concentration-response curve of A11 from multiple vendors, measured as percent reduction of luminescence. Non-linear fit with Hill's equation with baseline fixed to 0. FIG. 14C: Time course for reduction of mRNA levels of luciferase and il1β as well as luminescence emission in BV2 PU.1-Luciferase cells. FIGS. 14D-14E: Time and concentration-response curve (of pHrodo-labelled particles) for uptake of pHrodo-labelled Zymosan A (FIG. 14D) and mouse myelin in (FIG. 14E) in BV2 cells (left panels, respectively in each FIGS. 14D-14E), and iPS-microglia (right panels, respectively in each FIGS. 14D-14E). FIGS.: 14F-14G: Time and concentration-response curves of A11 (FIG. 14F) and DB2313 (FIG. 14G) of Zymosan A uptake in BV2 cells. Left, middle, and right panels show 1, 2 and 3 hours after compound application, respectively. ANOVA followed by Dunnett's post hoc test versus vehicle, black bars indicate P≤0.05.

By IC50 is commonly meant the concentration at which inhibition is half-maximal. The low end stands for greater potency, the high end for weaker potency. With `O=S(=O)(NCc1ccncc1)c1ccc(C2CCCCC2)cc1` [Compound A11], the “ATP levels, increase caused by IFNγ” value in assay [1] (2-day IFNγ 25 ng/mL plus A11 20 nM) was “reversed”. In addition, the “amount of ATP per well” value in assay [1] (A11 alone ≤20 nM) is recorded as “no effect”. Moreover, the IC50 in assay [2] turned out to be 2 nM. For the same compound, the “time after application at which efficacy starts” value in assay [3] was determined as 3 h.
